Reference: publication PMC11279807, “Modulation of the Antimelanoma Activity Imparted to Artemisinin Hybrids by the Monoterpene Counterpart” (Molecules, 2024)
Like-named read-outs stand apart in the source and are kept apart here.

How the values were obtained:
WM266 [1] = assay: MTT cell viability assay on metastatic melanoma cell line WM266; format: cell-based, human; conditions: for TSI WM266: tumor selectivity index = IC50 on C3PV / IC50 on WM266
Description: (§1) The primary human healthy fibroblast C3PV cell line was grown in a culture medium containing 50% Dulbecco Modified Medium (DMEM) and 50% Ham’s F10 supplemented with 10% Fetal Bovine Serum (FBS). […] To all growing media were added 1% Pen/Strep and 1% Glutamine.
(§2) To study the effect of artemisinin derivatives on cell viability, MTT assay was performed. Briefly, C3PV, WM115, and WM266 cell lines were seeded in 96-well plates (3000 cells/well in 100 μL of medium) 24 h before treatment and incubated overnight to allow for cell adherence. Afterward, the medium was replaced with a fresh one containing the appropriate dose of newly synthesized compounds (doses ranging from 0.01 to 1 μM were used for 24 h). The analyses of cell viability were performed at the end of the treatment. Triplicates were made in all experiments. After 24 h of treatment with newly synthesized compounds, the culture medium was replaced with a solution containing 0.5 mg/mL of MTT. After 3 h of incubation in an incubator, the medium was removed, and a lysis solution (10% SDS, 0.6% acetic acid in DMSO) was added to dissolve the formazan crystals. Optical density measurements were performed with a microplate reader EPOCH/2 (Biotek) with 630 nm (background) and a 570 nm filters.
(§3) The IC50 values were determined via non-linear regression, using the GraphPad Prism software package version 8 (GraphPad Software, San Diego, CA, USA). Results were expressed as means of IC50 values ± SD. The TSI values were calculated using the following formula: […]

WM115 = assay: MTT cell viability assay on primary melanoma cell line WM115; format: cell-based, human; conditions: for IC50: primary melanoma WM115, MTT, 24 h treatment, triplicates, read-out: IC50 (µM ± SD) WM115; for TSI WM115: tumor selectivity index = IC50 on C3PV / IC50 on WM115
Description: as §1, §2, §3

C3PV = assay: MTT cell viability assay on normal fibroblasts C3PV; format: cell-based, human; conditions: 24 h treatment, triplicates, read-out: IC50 (µM ± SD) C3PV
Description: as §1
as §2, with “Afterward, the medium was replaced with a fresh one containing the appropriate dose of newly synthesized compounds (doses ranging from 0.01 to 1 μM were used for 24 h).” left out
as §3

[2] = Stability by NMR analyses after heating; format: physicochemical; conditions: after heating at 45 and 100 °C for 8 and 2 h, respectively
Description: Based on cellular results, hybrids 9c, 9f, 10b, and 10f were selected for further studies. Their stability was evaluated by NMR analyses after heating them at 45 and 100 °C for 8 and 2 h, respectively (Supplementary Materials S1).

WM266 [3] = assay: Cell viability assay in the presence or absence of DFO on WM266; format: cell-based; conditions: Homo sapiens, treatment time 48 h
Text: To obtain information about the mode of action of compounds 9c, 9f, 10b, and 10f, we repeated the cell viability assays on the metastatic cancer line WM266 in the presence of the Fe^2+ chelating agent deferoxamine (DFO). As mentioned above, Fe^2+ ions trigger endoperoxide bridge opening of the sesquiterpene counterpart by Fenton-like mechanisms, leading to the formation of carbon- and oxygen-centered radicals. Usually, this in cell formation of single-electron reactive species seems to be responsible for the biological activity of ART and its semisynthetic and hybrid derivatives. Sequestration of Fe^2 by DFO generally reduces the efficacy of the compounds studied.
DFO was used to study the mode of action of compounds 9c, 9f, 10b, and 10f on WM266 cell line. Twenty-four hours before treatment, cells were seeded in 96-well plates and incubated overnight. Then, cells were pre-treated with 20 μM of DFO for 1 h. After this time, two washes with PBS were performed, and, subsequently, fresh medium containing different doses of the opportune compound was added for 48h. The analyses of cell viability were performed at the end of treatment, and triplicates were made in all experiments.

[4] = Homo sapiens, WM266, 24 h, metastatic melanoma WM266, MTT, 24 h treatment, triplicates, read-out: IC50 (µM ± SD) WM266
[5] = metastatic melanoma WM266, MTT, 24 h treatment, triplicates, read-out: IC50 (µM ± SD) WM266

Compound	IC50 (WM266 [1]; [4]) [µM]	TSI WM266 (WM266 [1])	IC50 (WM115; Homo sapiens, WM-115, 24 h) [µM]	TSI WM115 (WM115)	IC50 (C3PV; Homo sapiens, C3PV, 24 h) [µM]	also measured
CC(C)=CCCC(C)CCOC(=O)CCC(=O)OC1OC2OC3(C)CCC4C(C)CCC(C1C)C24OO3 (mixture of isomers) [Hybrid 10c]	0.6 ± 0.02	7.3	1.3 ± 0.9	3.4	4.4 ± 2.9	
CC(C)=CCCC(C)CCO (racemic) [(±)-citronellol (±)-6, (±)-citronellol, reference compound]	0.3 ± 0.23	10.0	2.6 ± 0.05	1.2	3 ± 1.2	TSI WM266 (WM266 [1]; listed as citronellol (±)-6): 10
CC(C)=CCC[C@@H](C)CCO [(+)-citronellol (+)-6, (+)-citronellol, reference compound]	0.6 ± 0.02	3.2	1.5 ± 0.07	1.3	1.9 ± 0.8	
CC(C)=CCC[C@H](C)CCO [(-)-citronellol (-)-6, (-)-citronellol, reference compound]	0.5 ± 0.3	2.0	0.9 ± 0.03	1.1	1 ± 0.9	
C[C@H]1[C@H](OC(=O)CCC(=O)O)O[C@@H]2O[C@@]3(C)CC[C@H]4[C@H](C)CC[C@@H]1[C@@]24OO3 [ARTA 3, artesunic acid, reference compound]	1.3 ± 0.2	1.3	1.5 ± 0.01	1.1	1.7 ± 0.44	
C[C@H]1[C@@H](O)O[C@@H]2O[C@@]3(C)CC[C@H]4[C@H](C)CC[C@@H]1[C@@]24OO3 [DHA 2, dihydroartemisinin, reference compound]	1.6 ± 0.03	0.4	1.6 ± 0.4	0.4	0.7 ± 0.19	
C=CCc1ccc(O)c(OC)c1 [Eugenol 4, eugenol, reference compound]		1.1		0.3		IC50 (WM266 [1]; Homo sapiens, metastatic melanoma WM266, MTT, 24 h treatment, triplicates, read-out: IC50 (µM ± SD) WM266): 0.9 ± 0.05 µM; IC50 (WM115; Homo sapiens, WM-115): 3 ± 0.02 µM; IC50 (C3PV; Homo sapiens): 1 ± 0.1 µM
CC(C)=CCC/C(C)=C/CO [Geraniol 8, geraniol, reference compound]	0.5 ± 0.09	1.0	0.5 ± 0.01	1.0	0.5 ± 0.02	
C=CCc1ccc(O[C@H]2O[C@@H]3O[C@@]4(C)CC[C@H]5[C@H](C)CC[C@@H]([C@H]2C)[C@@]35OO4)c(OC)c1 [Hybrid 9a]	1 ± 0.09	0.7	0.1 ± 0.01	7.0	0.7 ± 0.04	
C=C(C)C1CC=C(CO[C@H]2O[C@@H]3O[C@@]4(C)CC[C@H]5[C@H](C)CC[C@@H]([C@H]2C)[C@@]35OO4)CC1 (some centres unmarked) [Hybrid 9b]	0.2 ± 0.01	1.5	0.2 ± 0.01	1.5	0.3 ± 0.1	
CC(C)=CCCC(C)CCO[C@H]1O[C@@H]2O[C@@]3(C)CC[C@H]4[C@H](C)CC[C@@H]([C@H]1C)[C@@]24OO3 (some centres unmarked) [Hybrid 9c]	1.4 ± 0.56	260.1	2.1 ± 0.3	173.4	364 ± 7.9	decomposition by 1H NMR [2]: less than 5%; IC50 (WM266 [1]; Homo sapiens, WM266, reference hybrid on WM266, as printed in Table 2, read-out: IC50 ± SD R.H.): 1.4 ± 0.56 µM; IC50 (WM266 [3]; WM266, pre-treated with 20 μM DFO for 1 h, read-out: IC50 ± SD WM266 with DFO): 12700 ± 300 nM; IC50 (WM266 [3]; WM266, without DFO, read-out: IC50 ± SD WM266 without DFO): 1400 ± 560 nM
CC(C)=CCC[C@@H](C)CCO[C@H]1O[C@@H]2O[C@@]3(C)CC[C@H]4[C@H](C)CC[C@@H]([C@H]1C)[C@@]24OO3 [Hybrid 9d]	2.7 ± 0.2	18.9	2.9 ± 0.6	17.6	51 ± 0.3	
CC(C)=CCC[C@H](C)CCO[C@H]1O[C@@H]2O[C@@]3(C)CC[C@H]4[C@H](C)CC[C@@H]([C@H]1C)[C@@]24OO3 [Hybrid 9e]	2.2 ± 0.6	22.7	2.4 ± 0.1	20.8	50 ± 0.03	
CC(C)=CCC/C(C)=C/CO[C@H]1O[C@@H]2O[C@@]3(C)CC[C@H]4[C@H](C)CC[C@@H]([C@H]1C)[C@@]24OO3 [Hybrid 9g]	13.4 ± 1.5	0.5	14.5 ± 1.1	0.4	6.2 ± 0.7	
C=CCc1ccc(OC(=O)CCC(=O)OC2OC3OC4(C)CCC5C(C)CCC(C2C)C35OO4)c(OC)c1 (centres unmarked) [Hybrid 10a]	0.6 ± 0.1	2.7	1.5 ± 0.8	1.1	1.6 ± 0.3	
CC(C)=CCCC(C)CCOC(=O)CCC(=O)OC1OC2OC3(C)CCC4C(C)CCC(C1C)C24OO3 (centres unmarked) [Hybrid 10d]	1.3 ± 0.8	3.7	1.7 ± 0.5	2.8	4.8 ± 0.9	
CC(C)=CCCC(C)CCOC(=O)CCC(=O)OC1OC2OC3(C)CCC4C(C)CCC(C1C)C24OO3 (centres unmarked) [Hybrid 10e]		3.2		2.7		IC50 (WM266 [1]; [5]): 1.6 ± 0.9 µM; IC50 (WM115): 1.9 ± 0.6 µM; IC50 (C3PV): 5.1 ± 1.7 µM
CC(C)=CCCC(C)=CCOC(=O)CCC(=O)OC1OC2OC3(C)CCC4C(C)CCC(C1C)C24OO3 (centres unmarked) [Hybrid 10g]		2.4		1.6		IC50 (WM266 [1]; [5]): 1 ± 0.1 µM; IC50 (WM115): 1.5 ± 0.7 µM; IC50 (C3PV): 2.4 ± 0.9 µM
CC(C)=CCCC(C)CCOC1OC2OC3(C)CCC4C(C)CCC(C1C)C24O3 (centres unmarked) [Hybrid 11c]	35.1 ± 2.5					
CC(C)=CCCC(C)=CCOC1OC2OC3(C)CCC4C(C)CCC(C1C)C24O3 (centres unmarked) [Hybrid 11f]	76.3 ± 9.5					fold lower antimelanoma effect compared to the corresponding compounds 9c and f (WM266 [1]; WM266, 2-deoxy analogue vs. corresponding DHA hybrid): 40 fold
CC(C)=CCC/C(C)=C\CO [Nerol 7, nerol, reference compound]	0.5 ± 0.01	7.6	1.4 ± 0.03	2.7	3.8 ± 1.5	
CC(=O)O[C@H]1C(=O)[C@@]2(C)[C@H]([C@H](OC(=O)c3ccccc3)[C@]3(O)C[C@H](OC(=O)[C@H](O)[C@@H](NC(=O)c4ccccc4)c4ccccc4)C(C)=C1C3(C)C)[C@]1(OC(C)=O)CO[C@@H]1C[C@@H]2O [PTX, paclitaxel, reference compound]	0.9 ± 0.04	87.7	2.3 ± 0.7	34.3	78.9 ± 0.8	
C=C(C)[C@@H]1CC=C(CO)CC1 [Perillyl alcohol 5, perillyl alcohol, reference compound]	0.6 ± 0.04	87.5	1.2 ± 0.02	43.8	52.5 ± 9.5	
